In patent US20110104274A1, “NOVEL COMPOSITION AND USES THEREOF, IN PARTICULAR COSMETIC USES, FOR TREATING SKIN DEHYDRATION” (COMPAGNIE GERVAIS DANONE, priority 2006, published 2011):
Blank lines part the entries; values can stand above or below the molecule they belong to.

Legend:
[1] = tested on: transglutaminase K (TGK) expression in normal human keratinocytes (NHEKs); assay: Expression of transglutaminase K (TGK) in NHEKs (immunofluorescence related to number of nuclei); assay type: cell-based; settings: for Expression of TGK (average): related to negative control
Method: The GLA used is the product L2378 from the company SIGMA. The 4 main forms of catechins forming green tea polyphenol are mixed in the natural proportions: EGCG, EGC, ECG and EC (respective SIGMA references E4143, E3768, E3893 and E4018).
The range of concentration of GLA tested in vitro was from 1 to 4 μg/ml and that of GTP was from 0.3 to 0.7 μg/ml.
(§1) The tests are carried out on normal human keratinocytes (NHEKs) in a monolayer. The NHEKs are sown at 10^4/well in serum-free medium (SFM) without calcium, under conditions of temperature of 37° C., CO2 of 5% and relative humidity RH>95%. The NHEKs are incubated like this for 24 hours. The medium is then removed. Then the NHEKs are incubated for 48 hours in the presence of either: • SFM (serum-free medium) with addition of gamma-linolenic acid and green tea polyphenols at a concentration of 1.25, 2.5 or 3.75 μg/mL for GLA and at a concentration of 0.5 μg/ml for GTP; • SFM (serum-free medium) without calcium, which serves as negative control; • SFM (serum-free medium) with addition of calcium (1.50 mM), which serves as positive control.
The media are removed and a second incubation is carried out in the presence of the 3 types of media.
The culture medium is removed and then rinsing with PBS is carried out. The cells are then permeabilized and fixed with absolute methanol for 10 minutes at −20° C. Then drying and nonspecific saturation with a PBS-Tween20-milk proteins mixture are carried out, followed by rinsing with PBS. The NHEK cells are labelled with an anti-TGK monoclonal antibody (Reference: TEBU 0175003), then incubated for 1 hour at room temperature and rinsed with PBS.
Detection is carried out with a GAM-FITC conjugated secondary antibody (Reference: Life Technology A 11001) and the fluorescence is measured using software (Reference: NIKKON; LICIA Software).
The nuclei are labelled and counted by the Hoechst technique. First, the medium is removed and rinsing with PBS is carried out. Hoechst labelling (Reference: bis-benzimide Sigma B1155) is then used and incubation is carried out for 1 hour at ambient temperature. This is followed by rinsing with PBS, image acquisition and quantification of fluorescence.
The results are expressed in specific fluorescence of TGK, i.e. they are related to the number of nuclei so as to be independent of the variations in growth of the cells.
The average expression of TGK corresponds to measurement of the quantity of fluorescence referred to the number of nuclei after Hoechst labelling.

[2] = Bioavailability study: plasma/serum concentrations of catechins (EC, EGC, EGCG) after ingestion; assay type: in vivo, human; settings: ingestion of 45 mg of catechins
Method: This study evaluates the bioavailability of the combination of catechins with GLA, and in particular the bioavailability of this combination in a yoghurt containing probiotics (see Table 1).
To evaluate this bioavailability, the plasma concentrations of GLA and of catechins are monitored at different points in time after ingestion of products 1, 2, 3 or 4.
This study is a norm-centred, randomized, open study. It was carried out with 12 female volunteers (average age 30.8 years; body mass index (BMI) on average 21.4).
During each assessment visit (V2, V3, V4), the subjects consumed a product at random (among the 4 products). […]
[…] blood samples were taken in the 6 hours following ingestion of the product. The plasma concentration of the active ingredients was measured at 6 points in time (T0, T1 h, T2 h, T3 h, T4 h, T6 h) for measuring the plasma kinetics of GLA and the catechins. […]
The plasma concentrations of catechins and specifically of epicatechin (EC), epigallocatechin (EGC), and epigallocatechin gallate (EGCG) were determined by HPLC as described by Lee et al. (Lee M J, Prabhu S, Meng X, Li C, Yang C S. An improved method for the determination of green and black tea polyphenols in biomatrices by high-performance liquid chromatography with coulometric array detection. Anal. Biochem. 2000; 279: 164-9) and on the basis of the general knowledge of a person skilled in the art. […]

[3] = tested on: promoter of involucrin; settings: high dose of 20 μg/mL; literature; cited from earlier work
[4] = tested on: normal human keratinocytes (NHEKs); assay: Cytotoxicity test (MTT) on NHEKs, TGK study; assay type: cell-based; settings: MTT labelling
Method: as §1
(§2) The cell viability of the NHEKs is evaluated after labelling with 3-[4,5-dimethylthiazol-2-yl]-2,5-diphenyltetrazolium bromide (MTT) (SIGMA).

[5] = tested on: involucrin expression in normal human keratinocytes (NHEKs); assay: Expression of involucrin in NHEKs (ELISA); assay type: cell-based; settings: 0 to 10 μg/mL; NHEKs of groups 1 (abdominal) and 2 (breast); high or low calcium concentration; 48 hours
Method: The GLA used is the product L2378 from the company SIGMA.
(§3) The NHEKs of the two groups are incubated for 48 hours in the presence of a low ([…]) or a high ([…]) concentration of calcium, and in the presence of either: • SFM (serum-free medium) with addition of 0, 1, 3 and 10 μg/mL of gamma-linolenic acid and/or of green tea extracts, in which the concentration of green tea polyphenol is approximately 88 wt. %; • SFM (serum-free medium) with addition of calcium, which serves as positive control.

[6] = tested on: normal human keratinocytes (NHEKs); assay: Cytotoxicity test (MTT) on NHEKs, involucrin study; assay type: cell-based; settings: up to 10 μg/mL, regardless of the calcium concentration
Method: as §3, §2

Compound: [Ca+2] [Ca++, calcium]
Expression of TGK (average) ([1]; positive control, calcium 1.5 mM): 1407%

concentration of the individual catechin in the serum [2]: 0.04 to 0.33 µmol
concentration of the individual catechin in the serum ([2]; mass units): 18 to 152 ng/mL
Compound: O=C(O[C@@H]1Cc2c(O)cc(O)cc2O[C@@H]1c1cc(O)c(O)c(O)c1)c1cc(O)c(O)c(O)c1 [EGCG, epigallocatechin gallate]
effect on the promoter of involucrin [3]: activation

expression/activation of TGK after treatment (conclusion in words) ([1]; at the concentrations tested (GLA 1.25 and 3.75 μg/mL; GTP 0.5 μg/mL; GLA 2.5 + GTP 0.5 μg/mL)): seems to be activated
Compound: CCCCC/C=C\C/C=C\C/C=C\CCCCC(=O)O [GLA, gamma-linolenic acid]
Expression of TGK (average) ([1]; GLA 1.25 μg/mL): 250%
Expression of TGK (average) ([1]; GLA 3.75 μg/mL): 220%
maximum concentration without loss of viability of the NHEKs [4]: 5.00 µg/mL
expression of involucrin after treatment alone [5]: increased
toxicity to the NHEKs [6]: not toxic
